Experimental data from PubChem BioAssay (NCI).
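Grown in 96-well plates, cells were treated for 48 hours with each compound at five concentrations. Insufficient inhibition: endpoint recorded as highest concentration tested. GI50: concentration for 50% inhibition of growth. TGI is the concentration that stops growth completely.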

Tests used:
Test in all cases: growth of human tumour cells (NCI), 48 h
[1] = test system: OVCAR-5 ovarian
[2] = test system: SF-295 CNS
[3] = test system: NCI-H23 lung
[4] = test system: OVCAR-4 ovarian
[5] = test system: T-47D breast
[6] = test system: HCT-15 colon
[7] = test system: SK-OV-3 ovarian
[8] = test system: MALME-3M melanoma
[9] = test system: MOLT-4 leukemia
[10] = test system: CAKI-1 renal
[11] = test system: SNB-19 CNS
[12] = test system: NCI-H522 lung
[13] = test system: KM12 colon
[14] = test system: SK-MEL-2 melanoma
[15] = test system: K-562 leukemia
[16] = test system: HCC-2998 colon
[17] = test system: MDA-MB-231 breast
[18] = test system: COLO 205 colon
[19] = test system: IGROV1 ovarian
[20] = test system: U251 CNS
[21] = test system: PC-3 prostate
[22] = test system: HL-60(TB) leukemia
[23] = test system: 786-0 renal
[24] = test system: SR leukemia
[25] = test system: ACHN renal
[26] = test system: MCF7 breast
[27] = test system: HT29 colon
[28] = test system: BT-549 breast
[29] = test system: HS 578T breast
[30] = test system: NCI/ADR-RES ovarian
[31] = test system: MDA-MB-435
[32] = test system: NCI-H460 lung
[33] = test system: UACC-257 melanoma
[34] = test system: SNB-75 CNS
[35] = test system: SF-539 CNS
[36] = test system: SK-MEL-28 melanoma
[37] = test system: SF-268 CNS
[38] = test system: SK-MEL-5 melanoma
[39] = test system: EKVX NSCLC
[40] = test system: UO-31 renal
[41] = test system: OVCAR-3 ovarian
[42] = test system: HCT-116 colon
[43] = test system: SW-620 colon
[44] = test system: RPMI-8226 leukemia
[45] = test system: M14 melanoma
[46] = test system: HOP-62 NSCLC
[47] = test system: HOP-92 NSCLC
[48] = test system: SN12C renal
[49] = test system: A549 NSCLC
[50] = test system: LOX IMVI melanoma
[51] = test system: OVCAR-8 ovarian
[52] = test system: RXF 393 renal
[53] = test system: DU-145 prostate
[54] = test system: NCI-H226 lung
[55] = test system: UACC-62 melanoma
[56] = test system: CCRF-CEM leukemia
[57] = test system: TK-10 renal
[58] = test system: A498 renal

## Clc1nc(Oc2ccccc2)nc(-c2cn(-c3ccccc3)c3ccccc23)n1
[1]
  GI50: 22.9 µM
  TGI: 52.7 µM
[2]
  GI50: > 44.7 µM
  TGI: > 61 µM
[3]
  GI50: 7.31 µM
  TGI: 22.4 µM
[4]
  GI50: 6.4 µM
  TGI: 18.7 µM
[5]
  GI50: 8.58 µM
  TGI: 29.5 µM
[6]
  GI50: 5.38 µM
  TGI: 18 µM
[7]
  GI50: 18.9 µM
  TGI: 40.3 µM
[8]
  GI50: 1890 nM
  TGI: 4.82 µM
[9]
  GI50: 790 nM
  TGI: 21.9 µM
[10]
  GI50: 5.69 µM
  TGI: 12.9 µM
[11]
  GI50: 19 µM
  TGI: 35.8 µM
[12]
  GI50: 1880 nM
  TGI: 3.88 µM
[13]
  GI50: 7.51 µM
  TGI: 19.9 µM
[14]
  GI50: 4.66 µM
  TGI: 18.5 µM
[15]
  GI50: 400 nM
  TGI: 18.1 µM
[16]
  GI50: 13.8 µM
  TGI: 27.3 µM
[17]
  GI50: 5.33 µM
  TGI: 15.7 µM
[18]
  GI50: 10.6 µM
  TGI: 24.6 µM
[19]
  GI50: 2450 nM
  TGI: 6.26 µM
[20]
  GI50: 2530 nM
  TGI: 6.36 µM
[21]
  GI50: 5.03 µM
  TGI: 19.3 µM
[22]
  GI50: 773 nM
[23]
  GI50: 18.6 µM
  TGI: 35.6 µM
[24]
  GI50: 241 nM
  TGI: 849 nM
[25]
  GI50: 8.16 µM
  TGI: 21.1 µM
[26]
  GI50: 11.6 µM
  TGI: 32.5 µM
[27]
  GI50: 3.36 µM
  TGI: 11.5 µM
[28]
  GI50: 17 µM
  TGI: 35.6 µM
[29]
  GI50: 4.66 µM
  TGI: 18.7 µM
[30]
  GI50: 17.8 µM
  TGI: 34.9 µM
[31]
  GI50: 6.49 µM
  TGI: 23.1 µM
[32]
  GI50: 21.4 µM
  TGI: > 71.7 µM
[33]
  GI50: 9.2 µM
  TGI: 25 µM
[34]
  GI50: 13.7 µM
  TGI: 26.6 µM
[35]
  GI50: 16.1 µM
  TGI: 30 µM
[36]
  GI50: 3.92 µM
  TGI: 12.1 µM
[37]
  GI50: 4.28 µM
  TGI: 13.9 µM
[38]
  GI50: 14.3 µM
  TGI: 30.5 µM
[39]
  GI50: 14.6 µM
  TGI: 46.9 µM
[40]
  GI50: 3.04 µM
  TGI: 7.95 µM
[41]
  GI50: 3.37 µM
  TGI: 10.2 µM
[42]
  GI50: 3.64 µM
  TGI: 11.8 µM
[43]
  GI50: 2920 nM
  TGI: 9.24 µM
[44]
  GI50: 3.29 µM
  TGI: 21.5 µM
[45]
  GI50: 5.32 µM
  TGI: 17.1 µM
[46]
  GI50: 15.2 µM
  TGI: 29.4 µM
[47]
  GI50: 4.07 µM
  TGI: 20.7 µM
[48]
  GI50: 6.18 µM
  TGI: 20.1 µM
[49]
  GI50: 27.4 µM
  TGI: > 67.4 µM
[50]
  GI50: 2440 nM
  TGI: 5.93 µM
[51]
  GI50: 3.25 µM
  TGI: 11 µM
[52]
  GI50: 3.8 µM
  TGI: 10.7 µM
[53]
  GI50: 8.6 µM
  TGI: 21.8 µM
[54]
  GI50: 33.5 µM
  TGI: > 62.2 µM
[55]
  GI50: 13.2 µM
  TGI: 26.6 µM
[56]
  GI50: 3.99 µM
  TGI: 20.3 µM
[57]
  GI50: 28.7 µM
  TGI: 67.1 µM
[58]
  GI50: > 47.6 µM
  TGI: > 100 µM
